Measurements as given in patent US7259146B2, “Neuroprotective peptides” (Ortho-McNeil Pharmaceutical, Inc., priority 2000, dated 2007).
Entries after “also recorded” stand apart in the source; their conditions may differ.

Key:
[1] = Plasma determinations (EPO ELISA) in ischemia studies; assay type: in vivo, rat
Source text: Plasma Determinations: Blood samples were collected from each rat via the orbital sinus at the time of sacrifice. Plasma was separated out, frozen and analyzed by EPO ELISA for determination of plasma concentration (U/ml).

rat hippocampal cultures = assay: Neurite outgrowth assay (MAP2-FITC immunofluorescence), hippocampal cultures; assay type: cell-based
Source text: Dissociated hippocampal and cortical cell cultures were established from embryonic day 18 rat fetuses as previously described (Mattson et al., 1994). Briefly, fetuses were removed via cesarean section from pregnant moms (Sprague-Dawley) anesthetized with halothane according to the AVMA Panel on Euthanasia. Pups were decapitated and the brains were removed and placed in HEPES-buffered Hank's Balanced Salt solution (HBSS; Gibco). The hippocampi and cortices were dissected out and pooled according to tissue-type. Tissue was trypsinized for 15 min (1 mg/ml trypsin-HBSS; Worthington), rinsed with fresh HBSS, incubated in trypsin inhibitor (1 mg/ml; Sigma) for 5 min, rinsed again with fresh HBSS and then triturated in 1 ml fresh HBSS with a fire-polished glass pipette. Dissociated cells were seeded at 30,000 cells/well onto poly-D-lysine coated 96-well plates (Collaborative BioScience). Each well contained 100 μl of Eagle's Minimal Essential Media (MEM; Gibco) supplemented with 26 mM NaHCO3 (Sigma), 56 mM glucose (Sigma), 15 mM KCl (Sigma), 1 mM sodium pyruvate (Sigma), 1.1 mM L-glutamine (Sigma), 10% (v/v) heat-inactivated fetal bovine serum (Hyclone), and 0.001% gentamicin sulfate (Sigma) (pH 7.4). Cells were allowed to attach for 24 h in a humidified 37° C. 5% CO2 incubator before experimental treatment. The culture media was aspirated and exchanged with fresh media every three days.
Twenty-four hours after plating, cultures were treated with vehicle (PBS+0.1% BSA), 100 ng of various growth factors (brain derived neurotrophic factor (BDNF; Promega), glial-derived neurotrophic factor (GDNF; Promega), nerve growth factor (NGF; Boehringer Mannheim), basic fibroblast growth factor (bFGF; Boehringer Mannheim), insulin-like growth factor-1 (IGF-1; Boehringer Mannheim), neurotrophin-3 (NT3; Calbiochem), neurotrophin-4 (NT4; Calbiochem), ciliary neurotrophic factor (CNTF; Calbiochem), epidermal growth factor (EGF; Calbiochem), vascular endothelial growth factor (VEGF; Calbiochem)), or rhEPO (prepared same as above; 10 fM-10 nM)). Each treatment condition was run in quadruplicate or octuplicate. On the third day in culture, the media was aspirated off and replaced with fresh media and test compound. At one week in culture, the cells were fixed with 10% phosphate-buffered formalin for 15 min, then rinsed with DPBS (Sigma) and placed in blocking serum for 30 min (horse serum; 1:50 dilution in DPBS; Vector Labs). Cultures were rinsed again with DPBS and then incubated in primary antibody for 2 hr (microtubule-associated protein-2 (MAP-2) is a selective marker for dendritic processes; anti-mouse monoclonal (Chemicon); 1:1000 dilution of MAP-2 in antibody diluent (Zymed)). Negative control wells were incubated in antibody diluent alone. Background signal was determined by blank wells (cell-free) incubated with or without antibody. Cultures were rinsed again with DPBS and then placed in fluorescein for 1 hr (FITC; anti-mouse IgG; rat adsorbed; 1:50 dilution in DPBS; Vector Labs). Cultures were rinsed a final time with DPBS and then the plates were read on a Cytofluor 4000 fluorescence plate reader. Neurite outgrowth was expressed as percent change from control (vehicle; mean fluorescence±SD).
Dissociated hippocampal and cortical cell cultures were established from embryonic day 18 rat fetuses as previously described (Mattson et al., 1994). Briefly, fetuses were removed via cesarean section from pregnant moms (Sprague-Dawley) anesthetized with halothane according to the AVMA Panel on Euthanasia. Pups were decapitated and the brains were removed and placed in HEPES-buffered Hank's Balanced Salt solution (HBSS; Gibco). The hippocampi and cortices were dissected out and pooled according to tissue-type. […]

[2] = cited from earlier work
bak = assay: EPO induced gene expression in PC12 cells (quantitative RT-PCR); assay type: cell-based, rat; conditions: PC-12 cells
Protocol: (§1) PC-12 cells (from a rat Pheochromocytoma) were cultured on poly-D-Lysine coated tissue culture plastic in DMEM containing 10% FBS and 5% Horse serum. To induce the neuronal phenotype in PC-12 cells, serum was removed and the cells were treated with NGF (50 ng/ml). Cells were grown for 7 days in the presence of the NGF then used for experiments.
(§2) PC-12 cells were cultured as described in Example 1 in a 10 cm poly-D-lysine coated tissue culture dish. Cells were incubated in the presence of 1 U/ml of EPO for 24 hr. Total RNAn was then isolated using a Qiagen RNAeasy mini prep kit and used for RT-PCR.
(§3) Real time reverse transcription and PCR were performed in a single reaction using a light cycler and an RNA amplification kit from Roche Molecular Biochemicals. RNA was quantitated and added in equal amounts to reaction mix that includes the dsDNA specific dye SYBR green I. Specific PCR reaction products are quantitated by detecting the amount of fluorescence in the reaction at each PCR cycle. Final analysis was performed using the data analysis software included with the light cycler instrument.

bclXL = assay: as above; assay type: cell-based, rat; conditions: PC-12 cells
Protocol: as §1, §2, §3

PC-12 cells = assay: Glutamate toxicity in PC-12 cells (trypan blue exclusion); assay type: cell-based, rat; conditions: for protection against glutamate-induced cell death (in words): pre-treatment 24 hr, 200 μM glutamate
Protocol: PC-12 cells (from a rat Pheochromocytoma) were cultured on poly-D-Lysine coated tissue culture plastic in DMEM containing 10% FBS and 5% Horse serum. To induce the neuronal phenotype in PC-12 cells, serum was removed and the cells were treated with NGF (50 ng/ml). Cells were grown for 7 days in the presence of the NGF then used for experiments. PC-12 cells were cultured as described above. 24 hr prior to insult, cells were treated with rhEPO at concentrations ranging from 1 pm to 1 nm. On the day of the experiment, cells were exposed to 200 μM glutamate for 30 min. Cells were then washed 2 times with fresh media to remove the glutamate and cultured in fresh media containing NGF but no EPO. After 24 hr cells were assayed for viability using a trypan blue exclusion assay. […] Cells were then washed gently with PBS, then fixed with 10% formalin. Cell viability was determined by counting the total number of cells vs. the number of trypan blue positive (dead) cells.

[3] = 1 nm EPO for 24 hr (FIG. 3 legend)

## EPO: purified, recombinant human EPO (rhEPO), formulated and distributed under the trademarks EPREX, ERYPO or PROCRIT
[1]; Study I, continuous infusion
  plasma concentrations (terminal): correlated with the protective effect
[1]; Study II, single iv bolus 1000, 2500 or 5000 U/kg
  plasma concentrations (terminal): low
Rat hippocampal cultures; comparison of hippocampal and cortical cultures
  overall neurite outgrowth response, hippocampal versus cortical cultures: larger outgrowth response in the hippocampal cultures
Rat hippocampal cultures; hippocampal cultures
  neurite outgrowth (in words): significant increase in neurite outgrowth; also recorded: promotes neurite outgrowth
Rat hippocampal cultures; hippocampal cultures, concentration dependent
  concentration of maximal neurite outgrowth promoting activity: maximal activity observed at pM levels
Rat hippocampal cultures; hippocampal cultures, rhEPO 10 fM-10 nM, one week in culture
  neurite outgrowth response over control: 12–44%
Rat hippocampal cultures; hippocampal cultures, growth factors 100 ng
  outgrowth promoting activity compared to known growth factors: superior to several growth factors including BDNF, NGF and VEGF
[2]; patients
  tolerability in studies conducted to date: well tolerated
[2]; subjects treated for up to 2 years
  antibody titers against Epoetin alfa: No antibody titers
bak; [3]
  decrease in the expression of the pro-apoptotic Bak: greater than 5 fold
bak; EPO 1 U/ml for 24 hr
  decrease in the expression of the pro-apoptotic gene, bak: 5 fold
bclXL; [3]
  increase in the expression of the anti-apoptotic gene, bclXL: 6 fold
bclXL; EPO 1 U/ml for 24 hr
  increase in the expression of the anti-apoptotic gene, bclXL: 6 fold
PC-12 cells; 1 to 10 pm given 24 hours prior to glutamate (200 um), p<0.001
  cell survival, Trypan Blue exclusion assay: significantly increased cell survival
PC-12 cells; glutamate toxicity
  peak concentration for the neuroprotective effect: 10 pm
PC-12 cells; glutamate toxicity, 1 nm
  neuroprotective effect at 1 nm: no significant effect
PC-12 cells; glutamate toxicity, protection decreasing above 10 pm
  dose response curve for the neuroprotective effect: bi-phasic; also recorded: decreased at higher doses
PC-12 cells
  protection against glutamate-induced cell death (in words): significant decrease in cell death
PC-12 cells; listed as rhEPO
  protection against glutamate-induced cell death (in words): protects rat PC12 cells against glutamate-induced cell death
